Reference: patent US20120101083A1, “S1P1 AGONISTS COMPRISING A BICYCLIC N-CONTAINING RING” (GLAXO GROUP LIMITED, priority 2009, published 2012)
Where a name gives a salt, the structure may show the parent alone.

Target: T1, S1P1 receptor (S1P1 expressing RH7777 membranes) (Homo sapiens, UniProt P21453)
T1 construct: expressed in transfected cells; host or cells: RH7777 cells (membranes)
Test: S1P1 GTPγS assay
Assay type: biochemical
Conditions: tested in one of the above S1P1 assays (two GTPγS formats)
Protocol: The potencies and efficacies of the compounds of this invention for the S1P1 receptor can be determined by GTPγS assay performed on the human cloned receptor as described herein.
Membrane preparation for S1P1 GTPγS assay
All steps were performed at 4° C. Cells were homogenised within a glass Waring blender for 2 bursts of 15 secs in 200 mls of buffer (50 mM HEPES, 1 mM leupeptin, 25 μg/ml bacitracin, 1 mM EDTA, 1 mM PMSF, 2 μM pepstatin A). The blender was plunged into ice for 5 mins after the first burst and 10-40 mins after the final burst to allow foam to dissipate. The material was then spun at 500 g for 20 mins and the supernatant spun for 36 mins at 48,000 g. The pellet was resuspended in the same buffer as above but without PMSF and pepstatin A. The material was then forced through a 0.6 mm needle, made up to the required volume, (usually x4 the volume of the original cell pellet), aliquoted and stored frozen at −80° C.
S1P1 expressing RH7777 membranes (1.5 μg/well) membranes (1.5 μg/well) were homogenised by passing through a 23 G needle. These were then adhered to WGA-coated SPA beads (0.125 mg/well) in assay buffer (HEPES 20 mM, MgCl2 10 mM, NaCl 100 mM and pH adjusted to 7.4 using KOH 5M). GDP 10 μM FAC and saponin 90 μg/ml FAC were also added
After 30 minutes precoupling on ice, the bead and membrane suspension was dispensed into white Greiner polypropylene LV 384-well plates (5 μl/well), containing […] of compound. 5 μl/well [^35S]-GTPγS (0.5 nM for S1P1 or 0.3 nM for S1P3 final radioligand concentration) made in assay buffer was then added to the plates. The final assay cocktail (10.1 μl) was then sealed, spun on a centrifuge, then read immediately on a Viewlux instrument.
Alternatively, after 30 minutes precoupling on ice, the bead and membrane suspension was mixed with ^35S]-GTPγS (0.5 nM final radioligand concentration) in assay buffer (HEPES 20 mM, MgCl2 10 mM, NaCl 100 mM and pH adjusted to 7.4 using KOH 5M) in a 1:1 ratio. The bead, membrane and radioligand suspension was dispensed into white Greiner polypropylene low volume 384-well plates (10 μl/well), containing 0.1 μl of a solution of test compound in 100% DMSO. The final assay cocktail (10.1 μl) was then sealed, spun on a centrifuge, then read immediately on a Viewlux instrument.

T1 sequence (P21453 whole entry): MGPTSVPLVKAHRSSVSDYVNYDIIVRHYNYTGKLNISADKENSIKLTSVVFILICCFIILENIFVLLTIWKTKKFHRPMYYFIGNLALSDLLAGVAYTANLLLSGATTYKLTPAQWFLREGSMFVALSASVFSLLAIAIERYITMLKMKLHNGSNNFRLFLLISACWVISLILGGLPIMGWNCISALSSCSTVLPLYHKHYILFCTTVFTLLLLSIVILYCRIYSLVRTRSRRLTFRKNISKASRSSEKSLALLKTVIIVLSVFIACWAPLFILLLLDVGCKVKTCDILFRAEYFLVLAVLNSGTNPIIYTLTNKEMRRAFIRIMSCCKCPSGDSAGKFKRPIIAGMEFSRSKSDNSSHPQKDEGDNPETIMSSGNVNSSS

Compound | EC50 [nM]
CCCNc1ncc(-c2nc(-c3ccc4c(c3C)CCN(C[C@H](O)CO)CC4)no2)cc1C#N [Example 145, 5-(3-{34[(2S)-2,3-dihydroxypropyl]-6-methyl-2,3,4,5-tetrahydro-1H-3-benzazepin-7-yl}-1,2,4-oxadiazol-5-yl)-2-(propylamino)-3-pyridinecarbonitrile] | ≤ 1000
CCCOc1ncc(-c2nc(-c3ccc4c(c3)CCN(C(=O)CN)CC4)no2)cc1C#N [Example 107, 5-[3-(3-glycyl-2,3,4,5-tetrahydro-1H-3-benzazepin-7-yl)-1,2,4-oxadiazol-5-yl]-2-(propyloxy)-3-pyridinecarbonitrile] | ≤ 1000
CC(C)Oc1ccc(-c2nnc(-c3cccc4c3CCN(CCC(=O)N(C)C)C4)s2)cc1C#N [Example 46, 3-[5-(5-{3-cyano-4-[(1-methylethyl)oxy]phenyl}-1,3,4-thiadiazol-2-yl)-3,4-dihydro-2(1H)-isoquinolinyl]-N,N-dimethylpropanamide] | ≤ 1000
Cc1c(-c2nnc(-c3ccc(OC(C)C)c(C#N)c3)s2)ccc2c1CCN(CCCO)C2 [Example 16, 5-{5-[2-(3-Hydroxypropyl)-5-methyl-1,2,3,4-tetrahydro-6-isoquinolinyl]-1,3,4-thiadiazol-2-yl}-2-[(1-methylethyl)oxy]benzonitrile] | ≤ 1000
CCCNc1ncc(-c2nc(-c3ccc4c(c3)CCN(C(CO)CO)CC4)no2)cc1C#N [Example 150, 5-(3-{3-[2-hydroxy-1-(hydroxymethyl)ethyl]-2,3,4,5-tetrahydro-1H-3-benzazepin-7-yl}-1,2,4-oxadiazol-5-yl)-2-(propylamino)-3-pyridinecarbonitrile dihydrochloride] | ≤ 1000

Now from value to compound:

EC50 [nM] | Compound
≤ 1000 | CCCOc1ncc(-c2nc(-c3ccc4c(c3)CCN(C[C@H](O)CO)CC4)no2)cc1C#N [Example 115, 5-(3-{3-[(2S)-2,3-dihydroxypropyl]-2,3,4,5-tetrahydro-1H-3-benzazepin-7-yl}-1,2,4-oxadiazol-5-yl)-2-(propyloxy)-3-pyridinecarbonitrile]
≤ 100 | N#Cc1cc(-c2nc(-c3ccc4c(c3)CCN(CC(O)CO)CC4)no2)ccc1OC(CF)CF (stereo not drawn) [Example 60, 5-{3-[3-(2,3-dihydroxypropyl)-2,3,4,5-tetrahydro-1H-3-benzazepin-7-yl]-1,2,4-oxadiazol-5-yl}-2-{[2-fluoro-1-(fluoromethyl)ethyl]oxy}benzonitrile]
≤ 1000 | CCOc1ncc(-c2nc(-c3ccc4c(c3)CCN(C(=O)CN)CC4)no2)cc1C#N [Example 113, 2-(ethyloxy)-5-[3-(3-glycyl-2,3,4,5-tetrahydro-1H-3-benzazepin-7-yl)-1,2,4-oxadiazol-5-yl]-3-pyridinecarbonitrile]
≤ 1000 | N#Cc1cc(-c2nc(-c3ccc4c(c3)CCN(C(=O)CN)CC4)no2)ccc1N1CC(F)C1 [Example 94, 2-(3-fluoro-1-azetidinyl)-5-[3-(3-glycyl-2,3,4,5-tetrahydro-1H-3-benzazepin-7-yl)-1,2,4-oxadiazol-5-yl]benzonitrile]
≤ 100 | COCCN1CCc2ccc(-c3noc(-c4ccc(OC(C)C)c(C#N)c4)n3)cc2CC1 [Example 21, 2-[(1-Methylethyl)oxy]-5-(3-{3-[2-(methyloxy)ethyl]-2,3,4,5-tetrahydro-1H-3-benzazepin-7-yl}-1,2,4-oxadiazol-5-yl)benzonitrile]
≤ 100 | CC(C)Oc1ccc(-c2nc(-c3ccc4c(c3)CCN(C(=O)CNCCO)CC4)no2)cc1C#N [Example 86, 5-(3-{3-[N-(2-hydroxyethyl)glycyl]-2,3,4,5-tetrahydro-1H-3-benzazepin-7-yl}-1,2,4-oxadiazol-5-yl)-2-[(1-methylethyl)oxy]benzonitrile hydrochloride]
≤ 100 | Cc1c(-c2nnc(-c3ccc(OC(C)C)c(C#N)c3)s2)ccc2c1CCN(CCC(=O)N(C)C)C2 [Example 12, 3-[6-(5-{3-Cyano-4-[(1-methylethyl)oxy]phenyl}-1,3,4-thiadiazol-2-yl)-5-methyl-3,4-dihydro-2(1H)-isoquinolinyl]-N,N-dimethylpropanamide]
≤ 100 | CC(C)Oc1ccc(-c2nc(-c3ccc4c(c3)CCN(CCO)CC4)no2)cc1C#N [Example 19, 5-{3-[3-(2-Hydroxyethyl)-2,3,4,5-tetrahydro-1H-3-benzazepin-7-yl]-1,2,4-oxadiazol-5-yl}-2-[(1-methylethyl)oxy]benzonitrile]
≤ 10 | Cc1c(-c2noc(-c3ccc(OC(C)C)c(C#N)c3)n2)ccc2c1CCN(CC(=O)NC[C@@H](C)O)C2 [Example 120, 2-[6-(5-{3-cyano-4-[(1-methylethyl)oxy]phenyl}-1,2,4-oxadiazol-3-yl)-5-methyl-3,4-dihydro-2(1H)-isoquinolinyl]-N-[(2R)-2-hydroxypropyl]acetamide hydrochloride]
≤ 10 | CC(C)Oc1ncc(-c2nc(-c3ccc4c(c3)CCN(C(CO)CO)CC4)no2)cc1C#N [Example 95, 5-(3-{3-[2-hydroxy-1-(hydroxymethyl)ethyl]-2,3,4,5-tetrahydro-1H-3-benzazepin-7-yl}-1,2,4-oxadiazol-5-yl)-2-[(1-methylethyl)oxy]-3-pyridinecarbonitrile]

Target: T2, S1P1 (PathHunter CHO-K1 EDG1 β-Arrestin cell line) (Homo sapiens, UniProt P21453)
T2 construct: host or cells: PathHunter CHO-K1 EDG1 β-Arrestin cell line
T2 sequence (P21453 whole entry): as above
T2 sequence (P32121 whole entry partner): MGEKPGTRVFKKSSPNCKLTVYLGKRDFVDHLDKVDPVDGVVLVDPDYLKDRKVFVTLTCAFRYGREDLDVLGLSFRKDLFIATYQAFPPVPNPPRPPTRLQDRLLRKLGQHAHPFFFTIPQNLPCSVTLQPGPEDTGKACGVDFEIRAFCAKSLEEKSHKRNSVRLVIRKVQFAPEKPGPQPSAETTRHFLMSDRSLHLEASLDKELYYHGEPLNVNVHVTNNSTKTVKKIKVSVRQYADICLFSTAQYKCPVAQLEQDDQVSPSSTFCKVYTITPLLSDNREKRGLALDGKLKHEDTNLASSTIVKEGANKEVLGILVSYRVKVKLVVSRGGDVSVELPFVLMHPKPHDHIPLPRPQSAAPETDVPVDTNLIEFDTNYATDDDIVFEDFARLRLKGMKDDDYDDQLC
Test: S1P-1 β-Arrestin recruitment assay
Assay type: cell-based
Conditions: CHO-K1 EDG1 β-Arrestin cells, chemi-luminescence
Protocol: S1P-1 β-Arrestin Recruitment Assay
β-Arrestin recruitment assays were carried out using the PathHunter CHO-K1 EDG1
β-Arrestin cell line (DiscoveRx Corporation) in a chemi-luminescence detection assay. This cell line stably expresses β-Arrestin 2 and S1P1 fused to complementing portions of β-galactosidase (‘EA’ and ‘pro-link’, respectively) which associate upon Arrestin recruitment to form functional β-galactosidase enzyme.
Cells were grown to 80% confluency in Growth Medium (F12 nutrient HAMS supplemented with 10% heat-inactivated USA FBS, 1% L-glutamax, 800 μg/ml Geneticin and 300 μg/ml Hygromycin). Cells were harvested from the flask using Enzyme Free Cell Dissociation Buffer (Gibco) and washed from flasks with Optimem solution (Gibco). Cells were then centrifuged at 1000 rpm for 2-3 min and resuspended in Assay Buffer (Prepared from Sigma kit H1387 supplemented with 20 ml/L HEPES, 4.7 ml/L NaHCO3, 0.1% pluronic acid F-68 solution, 0.1% BSA and adjusted to pH 7.4 using sodium hydroxide at 1×10^6 cells/ml. Cells were dispensed into assay plates containing compounds (100n1/well of a solution of test compound in 100% DMSO) at 1×10^4 cells/well and incubated at 37° C./5% CO2 for 90 min followed by 15 min at room temperature. 5 μl detection mix (1 part Galacton Star, 5 parts Emerald II, 19 parts Assay Buffer; DiscoveRx) were added per well and the plates incubated at room temperature for 60 min. Luminescence was quantified using a Viewlux plate reader.

Compound | EC50 [nM]
CC(C)Oc1ccc(-c2nc(-c3ccc4c(c3)CCN(C(C)C(=O)N[C@H](C)CO)CC4)no2)cc1C#N (stereo partly drawn) [Example 162, 2-[7-(5-{3-cyano-4-[(1-methylethyl)oxy]phenyl}-1,2,4-oxadiazol-3-yl)-1,2,4,5-tetrahydro-3H-3-benzazepin-3-yl]-N-(1R)-2-hydroxy-1-methylethyl]propanamide hydrochloride] | ≤ 100
Cc1c(-c2noc(-c3ccc(OC(C)C)c(Cl)c3)n2)ccc2c1CCN(C(=O)CNC(CO)CO)C2 [Example 190, 2-({2-[6-(5-{3-chloro-4-[(1-methylethyl)oxy]phenyl}-1,2,4-oxadiazol-3-yl)-5-methyl-3,4-dihydro-2(1H)-isoquinolinyl]-2-oxoethyl}amino)-1,3-propanediol hydrochloride] | ≤ 100
Cc1c(-c2noc(-c3ccc(OC(C)C)c(C#N)c3)n2)ccc2c1CCN(C(=O)CNC[C@H](O)CO)C2 [Example 126, 5-[3-(2-{N-[(2S)-2,3-dihydroxypropyl]glycyl}-5-methyl-1,2,3,4-tetrahydro-6-isoquinolinyl)-1,2,4-oxadiazol-5-yl]-2-[(1-methylethyl)oxy]benzonitrile hydrochloride] | ≤ 10
CC(C)Oc1ccc(-c2nc(-c3ccc4c(c3)CCN(C[C@@H](O)C(=O)N[C@H](C)CO)CC4)no2)cc1C#N [Example 165, (2R)-3-[7-(5-{3-cyano-4-[(1-methylethyl)oxy]phenyl}-1,2,4-oxadiazol-3-yl)-1,2,4,5-tetrahydro-3H-3-benzazepin-3-yl]-2-hydroxy-N-(1R)-2-hydroxy-1-methylethyl]propanamide hydrochloride] | ≤ 10
Cc1c(-c2noc(-c3ccc(OC(C)C)c(C#N)c3)n2)ccc2c1CCN(C(=O)CN[C@H](C)CO)C2 [Example 128] | ≤ 10
CC(C)Oc1ccc(-c2nc(-c3ccc4c(c3)CCN(C(C)C(=O)NCCO)CC4)no2)cc1C#N (stereo not drawn) [Example 161, 2-[7-(5-{3-cyano-4-[(1-methylethyl)oxy]phenyl}-1,2,4-oxadiazol-3-yl)-1,2,4,5-tetrahydro-3H-3-benzazepin-3-yl]-N-(2-hydroxyethyl)propanamide hydrochloride] | ≤ 100
